The record followed here is US12239643B2, “Therapeutic agent for inflammatory diseases, autoimmune diseases, fibrotic diseases, and cancer diseases” (MEIJI SEIKA PHARMA CO., LTD., priority 2018, dated 2025).

For test [1], the system named is bleomycin-induced pulmonary fibrosis, C57BL/6J mice. Description: Mouse bleomycin model. Type of test: in vivo. As to conditions: oral once a day for 14 days, day 21 after BLM administration, compared with nintedanib. Here is the method:
Evaluation was carried out using female C57BL/6J mice (7 weeks of age). Bleomycin (BLM) at a concentration of 2 mg/kg was administered oropharyngeally under anesthesia to induce pulmonary fibrosis. Six days after BLM administration, the group was divided into experimental groups so as to achieve a uniform weight loss rate from the BLM administration day. The test compound dissolved or suspended in 0.5% w/v methylcellulose (0.5% MC) was orally administered (10 μL/g) at a concentration of 10 to 100 mg/kg once a day for 14 days from day 7 after the administration of BLM. On day 21 after BLM administration, blood was collected under anesthesia, and the lungs were fixed with a 10% neutral buffered formalin solution and treated for histological examination. To evaluate the degree of fibrosis, the concentration of serum surfactant protein D (SP-D) was measured by the ELISA method.

Test [2] has as its system DSS-induced colitis, C57BL/6J mice. Kind of test: DSS-induced mouse colitis model. Format: in vivo. As to conditions: oral once a day, DSS in drinking water. Here is the method:
Evaluation was carried out using male C57BL/6J mice (7 weeks of age). The mice were allowed to freely drink dextran sodium sulfate (DSS) dissolved in water for 5 days, and then allowed to freely drink water for 4 to 5 days. The test compound was dissolved or suspended in 0.5% w/v methylcellulose (0.5% MC) and orally administered once a day from the first day. The blank was a non-inflammation-induced group orally administered with 0.5% MC instead of the test compound and allowed to freely drink water instead of DSS, and the inflammation-induced control was a group orally administered with 0.5% MC instead of the test compound. The colitis inhibitory effect was evaluated by the disease activity index (DAI) score.

Another test deals with IL-17A. Kind of test: Cytokine suppression using human T cells: IL-17A. Format: cell-based. The note with it: T-cell; human CD3-positive T cells, CD3 antibody, about 48 hours; read-out: IL-17A Inhibitory Activity, Human T-Cell (Test Example 5). Here is the method:
(§1) First, CD3-positive T cells were separated from whole blood by a magnetic bead method using an EasySep cell separation kit. Separated T cells suspended in RPMI-1640 medium were seeded on a 96-well plate previously coated with CD3 antibody (final concentration 3 μg/mL). Further, CD28 antibody (final concentration 5 ng/mL) was added as an IL-5 production stimulus and an IL-13 production stimulus. A test compound dissolved in dimethyl sulfoxide was added to each well, followed by culture at 37° C. under 5% CO2. The culture was carried out for about 18 hours for the evaluation of the amount of TNFα, and for about 48 hours for the evaluation of the amounts of IL-17A, IL-5, and IL-13. […]
(§2) The measurement results obtained by measuring the TNFα inhibitory activity (50% inhibitory concentration) of the test compounds by the above method were evaluated in accordance with the following evaluated basis; A: less than 10 nM, B: 10 nM or more and less than 100 nM, and C: 100 nM or more. In addition, the measurement results obtained by measuring the IL-17A inhibitory activity, IL-5 inhibitory activity, and IL-13 inhibitory activity (50% inhibitory concentration) of the test compounds were evaluated in accordance with the following evaluated basis; A: less than 500 nM, B: 500 nM or more and less than 5000 nM, and C: 5000 nM or more.

Test [3] deals with IL-5. Kind of test: Cytokine suppression using whole human blood: IL-5 (CytoStim and CD28 antibody stimulus). Format: cell-based. As to conditions: read-out: IL-5 Inhibitory Activity, Human Whole Blood (Test Example 3). Here is the method: The test compound dissolved in dimethyl sulfoxide was added to a 96-well plate, and RPMI-1640 medium and human peripheral blood containing sodium heparin were added, followed by culture at 37° C. under 5% CO2 for 1 hour. A medium containing only dimethyl sulfoxide instead of the test compound was added to the control well. […]
After collecting the culture supernatant after culturing, the amount of each cytokine was measured by the sandwich ELISA method. […]
as §2, with “TNFα inhibitory activity and IL-5” for “TNFα”, “100” for “10”, “500” for “100”, “activity” for “activity, IL-5 inhibitory activity,”, “IL-4” for “IL-13”

The subject of test [4] is substance P-induced pruritus behavior, ICR mice. Kind of test: Mouse pruritus model. Type of test: in vivo. As to conditions: oral, substance P intradermally 2 hours after administration. Here is the method:
Evaluation was carried out using male ICR mice (5 to 7 weeks of age). A micro magnet was embedded under the skin of both hind limbs of the mice in advance, and the hair on the back of the mouse neck was shaved. On the day of the test, the test compound was dissolved or suspended in 0.5% w/v methylcellulose (0.5% MC) and orally administered. Two hours after administration of the test compound, 50 μL of 300 nM substance P dissolved in saline was intradermally administered to the back of the mouse neck. The blank was a non-pruritus-induced group orally administered with 0.5% MC instead of the test compound and intradermally administered with saline instead of substance P, and the pruritus induction control was a group orally administered with 0.5% MC instead of the test compound. The pruritus measurement system for small animals, MicroAct II, automatically measured pruritus behavior for 30 minutes immediately after intradermal administration.

In test [5] the test system is IL-5. Kind of test: Cytokine suppression using human T cells: IL-5. Type of test: cell-based. As to conditions: T-cell; human CD3-positive T cells, CD3 and CD28 antibody, about 48 hours; read-out: IL-5 Inhibitory Activity, Human T-Cell (Test Example 5). Here is the method: as §1, §2

For the compound `CC(C)(O)C(F)(F)Oc1ccc(-c2nccs2)c2oc(N3CC4CC(C3)N4)nc12` [Example 248, 1-((2-(3,6-Diazabicyclo[3.1.1]heptan-3-yl)-7-(thiazol-2-yl)benzo[d]oxazol-4-yl)oxy)-1,1-difluoro-2-methylpropan-2-ol], the pulmonary fibrosis score entry in test [1] is listed as “equal to or lower than those of nintedanib”. Moreover, the “serum SP-D concentration” value in test [1] is reported as “equal to or lower than those of nintedanib”. The “disease activity index (DAI) score” value in test [2] is “suppressed the DAI score at a lower concentration than that of apremilast”. Further, the IC50 in the test with IL-17A, in the test on IL-5 [3] and with IL-5 [5] was below 500 nM each time. Further, in test [4], the “scratching behavior (pruritus behavior for 30 minutes)” value is listed as “suppressed mouse scratching behavior at a lower concentration than apremilast”.
In the case of `CCOc1cc([C@@H](CS(C)(=O)=O)N2C(=O)c3cccc(NC(C)=O)c3C2=O)ccc1OC` [apremilast, reference compound], the IC50 in the test on IL-17A was 500 to 5000 nM; in the test with IL-5 [3], at least 5000 nM; in the test with IL-5 [5] it was at least 5000 nM.
